From ChEMBL document CHEMBL6096669, “Design and synthesis of novel derivatives of bisepoxylignans as potent anti-inflammatory agents involves the modulation of the M1/M2 microglia phenotype via TLR4/NF-κB signaling pathway” (Eur J Med Chem, 2025)
Calls of active or inactive are those of the source. The rule behind the calls is not given here.

Experiments:
Mus musculus [1] = test: Anti-neuroinflammatory activity against LPS-induced male C57BL/6 mouse assessed as suppression of LPS-induced TLR4 protein level at 20 mg/kg, po administered for 3 days followed by induced with LPS by tail vein injection by Western blot analysis; assay type: functional, organism-based; conditions: time 3.0 day
BV-2 [2] = test: Anti-inflammatory activity against LPS-induced mouse BV-2 cells assessed as decrease in LPS-induced IL-6 mRNA expression at 5 uM incubated for 4 hrs followed by LPS induced for 12 hrs by RT-PCR analysis relative to control; assay type: functional, cell-based; conditions: time 16.0 hrs
[3] = AUMClast in rat at 20 mg/kg, po single dose; assay type: ADME, organism-based; conditions: in vivo
[4] = Acute toxicity in C57BL/6 mouse assessed as morphological changes in kidney by measuring signs of inflammation at 500 mg/kg, po single dose measured on day 8 by H and E staining based assay; assay type: organism-based; conditions: in vivo, 192 h, time 8 day
BV-2 [5] = test: Anti-inflammatory activity against LPS-induced mouse BV-2 cells assessed as decrease in LPS-induced TNFalpha production incubated for 4 hrs followed by LPS induced for 24 hrs by Western blotting analysis; assay type: functional, cell-based; conditions: dose 5-20 µM, time 28.0 hrs
Mus musculus [6] = test: Anti-neuroinflammatory activity against LPS-induced male C57BL/6 mouse assessed as suppression of LPS-induced pathological changes in lung at 20 mg/kg, po administered for 3 days followed by induced with LPS by tail vein injection by hematoxylin-eosin staining based assay; assay type: functional, organism-based; conditions: time 3.0 day
BV-2 [7] = test: Anti-inflammatory activity against LPS-induced mouse BV-2 cells assessed as decrease in LPS-induced iNOS production incubated for 4 hrs followed by LPS induced for 24 hrs by Western blotting analysis; assay type: functional, cell-based; conditions: dose 5-20 µM, time 28.0 hrs
BV-2 [8] = test: Anti-inflammatory activity against LPS-induced mouse BV-2 cells assessed as decrease in LPS-induced IL-1beta mRNA expression at 10 to 20 uM incubated for 4 hrs followed by LPS induced for 12 hrs by RT-PCR analysis relative to control; assay type: functional, cell-based; conditions: dose 10-20 µM, time 16.0 hrs
BV-2 [9] = test: Anti-neuroinflammatory activity against LPS-induced mouse BV-2 cells assessed as smaller cell bodies and morphology at 20 uM by bright field microscopy relative to LPS-induced control; assay type: functional, cell-based
BV-2 [10] = test: Inhibition of LPS-induced NO production in mouse BV-2 cells measured after 24 hrs followed by induced with LPS for another 24 hrs by ELISA relative to control; assay type: functional, cell-based
[11] = Acute toxicity in C57BL/6 mouse assessed as change in BUN level at 500 mg/kg, po single dose measured on day 8; assay type: organism-based; conditions: in vivo
[12] = Biodistribution in C57BL/6 mouse kidney at 20 mg/kg, IG measured after 15 mins; assay type: ADME, organism-based; conditions: in vivo, po, 0.25 h
[13] = Acute toxicity in C57BL/6 mouse assessed as change in ALT level at 500 mg/kg, po single dose measured on day 8 by ALT/GPT test kit; assay type: organism-based; conditions: in vivo
BV-2 [14] = test: Anti-inflammatory activity against LPS-induced mouse BV-2 cells assessed as decrease in LPS-induced IL-1beta mRNA expression at 5 uM incubated for 4 hrs followed by LPS induced for 12 hrs by RT-PCR analysis relative to control; assay type: functional, cell-based; conditions: time 16.0 hrs
Mus musculus [15] = test: Anti-neuroinflammatory activity against LPS-induced male C57BL/6 mouse assessed as suppression of LPS-induced pathological changes in liver at 20 mg/kg, po administered for 3 days followed by induced with LPS by tail vein injection by hematoxylin-eosin staining based assay; assay type: functional, organism-based; conditions: time 3.0 day
Mus musculus [16] = test: Anti-neuroinflammatory activity against LPS-induced male C57BL/6 mouse assessed as suppression of LPS-induced pathological changes in spleen at 20 mg/kg, po administered for 3 days followed by induced with LPS by tail vein injection by hematoxylin-eosin staining based assay; assay type: functional, organism-based; conditions: time 3.0 day

For `O=c1[nH]c2ccc(Nc3ncnc4c3ccn4Cc3ccc(F)cc3)cc2[nH]1`, the Activity (Mus musculus [1]) was “Active”, the Activity (BV-2 [2]) was “Not active; No Significant Effect Observed Vs Lps” and the AUMClast [3] was 269972.2 hr.hr.ng/ml. For the same compound, the Activity [4] was “Non-toxic”, the Activity (BV-2 [5]) was “Dose-dependent-effect” and the Activity (Mus musculus [6]) was “Active; Decreased Lps-Induced Visceral Injury (Cell Morphology, Hemorrhage, And Neutrophil Infiltration) And Maintaining Normal Cell Shape And Arrangement And Enhancing Infiltration Of Inflammatory Cells”. The Activity (BV-2 [7]) was “Dose-dependent-effect”, the Activity (BV-2 [8]) was “Active” and the Activity (BV-2 [9]) was “Active”. The inhibition (BV-2 [10]) was “Active”, the Activity [11] was “Non-toxic” and the Drug uptake [12] was “Active”. The Activity [13] was “Non-toxic”, the Activity (BV-2 [14]) was “Not active; No Significant Effect Observed Vs Lps” and the Activity (Mus musculus [15]) was “Active; Decreased Lps-Induced Visceral Injury (Cell Morphology, Hemorrhage, And Neutrophil Infiltration) And Maintaining Normal Cell Shape And Arrangement And Enhancing Infiltration Of Inflammatory Cells”. The Activity (Mus musculus [16]) was “Active; Decreased Lps-Induced Visceral Injury (Cell Morphology, Hemorrhage, And Neutrophil Infiltration) And Maintaining Normal Cell Shape And Arrangement And Enhancing Infiltration Of Inflammatory Cells”.
